The text below walks through data of US20260070945A1, “MACROCYCLIC IMMUNOMODULATORS” (Bristol-Myers Squibb Company, priority 2022, published 2026).

Molecules are shown by their SMILES. *1 amine or outer side, *2 acyl side, *3 side chain or, on linkers, in order; H or OH if unused. Where a SMILES comes first, the peptide text is derived from it. Bridges are numbered along the chain shown (N, C = ends). [ ]: non-standard residue; d: D form. The star is where a group is joined. X10 = O=C(O)COc1ccc(C[C@H](CC(=O)C[*:2])C(=O)[*:1])cc1; Phe(3-CF3) = N[C@@H](Cc1cccc(C(F)(F)F)c1)C(=O)O; Phe(4-COOH) = N[C@@H](Cc1ccc(C(=O)O)cc1)C(=O)O; Bip = N[C@@H](Cc1ccc(-c2ccccc2)cc1)C(=O)O; NH(CH2)12COOH = O=C(O)CCCCCCCCCCCCN*; Val(3-OH) = CC(C)(O)[C@H](N)C(=O)O; NHhexadecyl = CCCCCCCCCCCCCCCCN*; Cha = N[C@@H](CC1CCCCC1)C(=O)O; Carboxymethyl = O=C(O)C*; NMeA = CN[C@@H](C)C(=O)O; Dab = NCC[C@H](N)C(=O)O; AEEA = NCCOCCOCC(=O)O

T1 sequence (Q15116 25-288): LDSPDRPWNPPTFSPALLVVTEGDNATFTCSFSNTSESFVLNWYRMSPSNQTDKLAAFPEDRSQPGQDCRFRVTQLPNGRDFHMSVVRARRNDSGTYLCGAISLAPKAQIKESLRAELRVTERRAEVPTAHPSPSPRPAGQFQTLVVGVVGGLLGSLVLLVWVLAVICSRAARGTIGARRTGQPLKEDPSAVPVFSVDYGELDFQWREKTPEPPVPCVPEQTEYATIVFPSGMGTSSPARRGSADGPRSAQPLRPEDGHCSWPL

The test addresses T1, PD-1/PD-L1 interaction (PE-labeled human PD-L1-Ig binding to Jurkat cell line over-expressing human PD-1) (Homo sapiens, UniProt Q15116).
T1 construct: expressed in transfected cells; host or cells: Jurkat
In words: Jurkat-PD-1 Cell Binding High-Content Screening Assay (CBA). The settings on record: PE-labeled PD-L1-Ig 20 nM final, Jurkat-hPD-1 cells; read-out: Jurkat HPD1 PDL1 IC50. In a few lines: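 Jurkat-hPD-1 cells (8×10^3/well) in DMEM with 10% fetal calf serum were preincubated with compound for 2 h at 37 °C. PE-labeled PD-L1-Ig was then added at 20 nM final for 1 h. Cells were fixed in paraformaldehyde with Hoechst 33342, washed and imaged by high-content imaging.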
Consider `CC(=O)NCCCC[C@@H]1NC(=O)[C@H](C(C)(C)O)NC(=O)[C@H](CC2CCCCC2)NC(=O)[C@H](CCN)NC(=O)[C@@H](CC(C)C)NC(=O)[C@H](C)N(C)C(=O)[C@H](CCCNC(=N)N)NC(=O)[C@H](Cc2ccc(-c3ccccc3)cc2)NC(=O)[C@H](Cc2ccc(C(=O)O)cc2)NC(=O)[C@H](Cc2cccc(C(F)(F)F)c2)NC(=O)[C@H](CC(=O)O)NC(=O)[C@H](Cc2ccc(OCC(=O)O)cc2)NC(=O)[C@H](Cc2ccc(OCC(=O)O)cc2)NC(=O)CSC[C@@H](C(=O)N[C@@H](CCN)C(=O)NCCCCCCCCCCCCC(=O)O)NC1=O` [Example 2638] ({CH2CO}-Y(Carboxymethyl)Y(Carboxymethyl)D[Phe(3-CF3)][Phe(4-COOH)][Bip]R[NMeA][dL][Dab][Cha][Val(3-OH)]K(Ac)C[Dab]-{NH(CH2)12COOH}; thioether N-14), for which the IC50 (commonly the point on the concentration scale where inhibition reaches its midpoint) was found to be 0.0091 µM.

Regarding `CC(=O)NCCCC[C@@H]1NC(=O)[C@H](C(C)(C)O)NC(=O)[C@H](CC2CCCCC2)NC(=O)[C@H](CCN)NC(=O)[C@@H](CC(C)C)NC(=O)[C@H](C)N(C)C(=O)[C@H](CCCNC(=N)N)NC(=O)[C@H](Cc2ccc(-c3ccccc3)cc2)NC(=O)[C@H](Cc2ccc(C(=O)O)cc2)NC(=O)[C@H](Cc2cccc(C(F)(F)F)c2)NC(=O)[C@H](CC(=O)O)NC(=O)[C@H](Cc2ccc(OCC(=O)O)cc2)NC(=O)[C@H](Cc2ccc(OCC(=O)O)cc2)NC(=O)CSC[C@@H](C(=O)N[C@@H](CCN)C(=O)NCCOCCOCC(=O)NCCCCCCCCCCCCC(=O)O)NC1=O` [Example 2639] ({CH2CO}-Y(Carboxymethyl)Y(Carboxymethyl)D[Phe(3-CF3)][Phe(4-COOH)][Bip]R[NMeA][dL][Dab][Cha][Val(3-OH)]K(Ac)C[Dab][AEEA]-{NH(CH2)12COOH}; thioether N-14), the IC50 was 0.0168 µM.

As to `CC(=O)NCCCC[C@@H]1NC(=O)[C@H](C(C)(C)O)NC(=O)[C@H](CC2CCCCC2)NC(=O)[C@H](CCN)NC(=O)[C@@H](CC(C)C)NC(=O)[C@H](C)N(C)C(=O)[C@H](CCC(=O)O)NC(=O)[C@H](Cc2ccc(-c3ccccc3)cc2)NC(=O)[C@H](Cc2ccc(C(=O)O)cc2)NC(=O)[C@H](Cc2cccc(C(F)(F)F)c2)NC(=O)[C@H](CC(=O)O)NC(=O)[C@H](Cc2ccc(OCC(=O)O)cc2)NC(=O)[C@H](Cc2ccc(OCC(=O)O)cc2)NC(=O)CSC[C@@H](C(=O)N[C@@H](CCN)C(=O)NCCOCCOCC(=O)NCCCCCCCCCCCCC(=O)O)NC1=O` [Example 2640] ({CH2CO}-Y(Carboxymethyl)Y(Carboxymethyl)D[Phe(3-CF3)][Phe(4-COOH)][Bip]E[NMeA][dL][Dab][Cha][Val(3-OH)]K(Ac)C[Dab][AEEA]-{NH(CH2)12COOH}; thioether N-14), the IC50 came out at 0.0397 µM.

Take `CCCCCCCCCCCCCCCCNC(=O)CC[C@H](NC(=O)COCCOCCNC(=O)[C@H](CCN)NC(=O)[C@@H]1CSCC(=O)C[C@@H](Cc2ccc(OCC(=O)O)cc2)C(=O)N[C@@H](Cc2ccc(OCC(=O)O)cc2)C(=O)N[C@@H](CC(=O)O)C(=O)N[C@@H](Cc2cccc(C(F)(F)F)c2)C(=O)N[C@@H](Cc2ccc(C(=O)O)cc2)C(=O)N[C@@H](Cc2ccc(-c3ccccc3)cc2)C(=O)N[C@@H](CCC(N)=O)C(=O)N(C)[C@@H](C)C(=O)N[C@H](CC(C)C)C(=O)N[C@@H](CCN)C(=O)N[C@@H](CC2CCCCC2)C(=O)N[C@@H](C(C)(C)O)C(=O)N[C@@H](CCCCNC(C)=O)C(=O)N1)C(=O)O` [Example 2641] (Y(Carboxymethyl)D[Phe(3-CF3)][Phe(4-COOH)][Bip]Q[NMeA][dL][Dab][Cha][Val(3-OH)]K(Ac)C[Dab][AEEA]E(NHhexadecyl)-OH; linker N-13 via X10): the IC50 came out at 0.0389 µM.
